The source of these data is ChEMBL document CHEMBL5385932, “Highly Concentrated Linear Guanidine Amides from the Marine Sipunculid Phascolosoma granulatum” (J Nat Prod, 2024).

One data set concerns A549. In words: Cytotoxicity against human A549 cells assessed as effect on cell viability at 20 ug/ml by MTT assay. In kind it is functional, cell-based. The note with it: dose 20.0 µg/ml.
The next data set deals with A2058. In words: Cytotoxicity against human A2058 cells assessed as effect on cell viability at 20 ug/ml by MTT assay. In kind it is functional, cell-based. The following applies: dose 20.0 µg/ml. (Formazan colour is commonly taken as a measure of viable cells.)
Another data set has as its system HepG2. In words: Cytotoxicity against human HepG2 cells assessed as effect on cell viability at 20 ug/ml by MTT assay. In kind it is functional, cell-based. The note with it: dose 20.0 µg/ml.
For a further data set, the system named is MCF7. In words: Cytotoxicity against human MCF7 cells assessed as effect on cell viability at 20 ug/ml by MTT assay. In kind it is functional, cell-based. The following applies: dose 20.0 µg/ml.
The test system of the next data set is MIA PaCa-2. In words: Cytotoxicity against human MIA PaCa-2 cells assessed as effect on cell viability at 20 ug/ml by MTT assay. Type of data set: functional, cell-based. The note with it: dose 20.0 µg/ml.
A further data set deals with Artemia salina. In words: Toxicity in brine shrimp assessed as lethality at 500 uM measured after 24 to 48 hrs by microscopy. Type of data set: organism-based. The note with it: in vivo, time 24-48 hrs.
The subject of a further data set is Candida albicans. In words: Antifungal activity against Candida albicans ATCC64124 assessed as effect on fungal growth at 64 ug/ml. The note with it: dose 64.0 µg/ml. Type of data set: functional, organism-based.
For another data set, the system named is Nakaseomyces glabratus. In words: Antifungal activity against Candida glabrata ATCC2001 assessed as effect on fungal growth at 64 ug/ml. In kind it is functional, organism-based. The note with it: dose 64.0 µg/ml.
Another data set deals with Pichia kudriavzevii. In words: Antifungal activity against Candida krusei ATCC6258 assessed as effect on fungal growth at 64 ug/ml. Type of data set: functional, organism-based. The note with it: dose 64.0 µg/ml.
The subject of the next data set is Candida parapsilosis. In words: Antifungal activity against Candida parapsilosis ATCC22019 assessed as effect on fungal growth at 64 ug/ml. Type of data set: functional, organism-based. The note with it: dose 64.0 µg/ml.
The next data set relates to Candida tropicalis. In words: Antifungal activity against Candida tropicalis ATCC750 assessed as effect on fungal growth at 64 ug/ml. In kind it is functional, organism-based. The following applies: dose 64.0 µg/ml.
The subject of a further data set is Aspergillus fumigatus. In words: Antifungal activity against Aspergillus fumigatus ATCC46645 assessed as effect on fungal growth at 64 ug/ml. In kind it is functional, organism-based. The following applies: dose 64.0 µg/ml.
The subject of a further data set is Acinetobacter baumannii. In words: Antibacterial activity against Acinetobacter baumannii ATCC19606 assessed as effect on bacterial growth at 64 ug/ml. In kind it is functional, organism-based. The following applies: dose 64.0 µg/ml.
The test system of another data set is Escherichia coli. In words: Antibacterial activity against Escherichia coli ATCC25922 assessed as effect on bacterial growth at 64 ug/ml. In kind it is functional, organism-based. The note with it: dose 64.0 µg/ml.
A further data set deals with Staphylococcus aureus. In words: Antibacterial activity against methicillin-susceptible Staphylococcus aureus ATCC29213 assessed as effect on bacterial growth at 64 ug/ml. Type of data set: functional, organism-based. The note with it: dose 64.0 µg/ml.

The structures appear in SMILES notation. Calls of active or inactive are those of the source. The calls are words filed in the database; no cut-off is given here.

Turning to `CC(C)C[C@H](O)CC/C=C\CNC(=O)CCNC(=N)N.O=C(O)C(F)(F)F`, the result with A549, in the data set with A2058, in the data set with HepG2, in the data set with MCF7 and with MIA PaCa-2 was inactive. Moreover, in the data set on Artemia salina, the Activity entry is reported as “Non-Toxic”.

On to `C/C(=C/CCC(C)C)C(=O)NCCCCNC(=N)N.O=C(O)C(F)(F)F`, for which the outcome in the data set with A549, in the data set with A2058, in the data set with HepG2, in the data set on MCF7, with MIA PaCa-2 and in the data set with Candida albicans was inactive. Also, the result in the data set with Nakaseomyces glabratus, in the data set on Pichia kudriavzevii, in the data set with Candida parapsilosis, in the data set on Candida tropicalis, in the data set with Aspergillus fumigatus and with Acinetobacter baumannii was inactive. For the same molecule, the outcome in the data set on Escherichia coli and with Staphylococcus aureus was inactive. Besides, the Activity result in the data set with Artemia salina is “Non-Toxic”.

With `CC(C)CC[C@@H](C)C(=O)NCCCCNC(=N)N.O=C(O)C(F)(F)F`, the outcome in the data set on A549, in the data set with A2058, in the data set on HepG2, in the data set on MCF7, in the data set on MIA PaCa-2 and with Candida albicans was inactive. For the same molecule, the result in the data set on Nakaseomyces glabratus, with Pichia kudriavzevii, in the data set on Candida parapsilosis, in the data set on Candida tropicalis, in the data set on Aspergillus fumigatus and in the data set on Acinetobacter baumannii was inactive. In addition, the result with Escherichia coli and in the data set on Staphylococcus aureus was inactive. Moreover, the Activity entry in the data set on Artemia salina is reported as “Non-Toxic”.

For `CC(C)CC(=O)N(C)CCCCNC(=N)N.O=C(O)C(F)(F)F`, the outcome with A549, in the data set with A2058, in the data set with HepG2, in the data set on MCF7 and in the data set with MIA PaCa-2 was inactive. For the same molecule, the Activity result with Artemia salina is on record as “Non-Toxic”.

Consider `CC(C)CC[C@@H](C)C(=O)N(C)CCCCNC(=N)N.O=C(O)C(F)(F)F`, for which the result with A549, in the data set with A2058, in the data set on HepG2, in the data set with MCF7, in the data set on MIA PaCa-2 and in the data set on Candida albicans was inactive. Also, the outcome in the data set with Nakaseomyces glabratus, with Pichia kudriavzevii, with Candida parapsilosis, in the data set with Candida tropicalis, in the data set on Aspergillus fumigatus and in the data set with Acinetobacter baumannii was inactive. Also, the outcome in the data set on Escherichia coli and in the data set with Staphylococcus aureus was inactive. For the same molecule, the Activity entry in the data set with Artemia salina is “Non-Toxic”.

For `CC(C)CC[C@@H](C)C(=O)NCCCNC(=N)N.O=C(O)C(F)(F)F`, the outcome with A549, with A2058, with HepG2, with MCF7, in the data set on MIA PaCa-2 and with Candida albicans was inactive. Besides, the outcome with Nakaseomyces glabratus, in the data set on Pichia kudriavzevii, in the data set with Candida parapsilosis, with Candida tropicalis, in the data set with Aspergillus fumigatus and in the data set with Acinetobacter baumannii was inactive. The outcome in the data set with Escherichia coli and in the data set on Staphylococcus aureus was inactive. In addition, in the data set on Artemia salina, the Activity result is reported as “Non-Toxic”.
